The term pIC50 denotes the IC50 on a negative log10 scale, so that one unit is a factor of ten.

The assay deals with T1, Parkinson disease protein 7 (Homo sapiens, UniProt Q99497).
T1 sequence (Q99497 whole entry): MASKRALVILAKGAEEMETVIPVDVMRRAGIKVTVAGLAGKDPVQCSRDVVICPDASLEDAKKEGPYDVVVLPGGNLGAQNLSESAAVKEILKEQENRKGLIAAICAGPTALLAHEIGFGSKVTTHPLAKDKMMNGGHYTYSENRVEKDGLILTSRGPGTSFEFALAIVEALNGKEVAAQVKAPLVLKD
Briefly: Inhibition of pET3a-His-tagged DJ1 (unknown origin) expressed in Escherichia coli BL21 assessed as decrease in esterase activity using DiFMUAc as substrate.

pIC50: −log10 of the molar value.

On to `Cc1ccc(CN2C(=O)C(=O)c3cc(Br)cc(Br)c32)cc1`, for which the pIC50 was 6.17.

Regarding `O=C1C(=O)N(CCc2ccccc2)c2ccccc21`, the pIC50 is 6.15.

Turning to `COc1ccc(CN2C(=O)C(=O)c3cc(Br)cc(Br)c32)cc1`, the pIC50 was 6.57.

As for `O=C1C(=O)N(CCc2ccccc2)c2c(Br)cc(Br)cc21`, the pIC50 is 7.20.

For the molecule `COc1ccc2c(c1)C(=O)C(=O)N2CCc1ccccc1`, the pIC50 is 5.53.

With `O=C1C(=O)N(CCc2ccccc2)c2ccc(F)cc21`, the pIC50 was 6.93.

Take `CCN1C(=O)C(=O)c2cc(F)ccc21`: the pIC50 was 6.93.

Consider `O=C1C(=O)N(CC2(c3ccccc3)CC2)c2ccc(F)cc21`, for which the pIC50 is 6.45.

Consider `O=C1/C(=C/Cl)c2cc(F)ccc2N1CCc1ccccc1`, for which the pIC50 is 4.82.

Regarding `O=C1C(Cl)c2cc(F)ccc2N1CCc1ccccc1` (stereo not drawn), the pIC50 was 7.07.

As for `O=C1N(CCc2ccccc2)c2ccc(F)cc2C1(Cl)Cl`, the pIC50 was 5.77.

Take `CC(C)(C)CCN1C(=O)C(=O)c2cc(F)ccc21`: the pIC50 was 6.07.

For `O=C1C(F)c2cc(F)ccc2N1CCc1ccccc1` (stereo not drawn), the pIC50 is 6.15.

Turning to `O=C(O)Cc1ccc2c(c1)N(CCc1ccccc1)C(=O)C2=O`, the pIC50 is 5.63.

Consider `COc1cc(F)cc2c1N(CCc1ccccc1)C(=O)C2=O`, for which the pIC50 was 7.26.

Take `O=C1C=C(CCc2ccccc2)c2ccccc2C1=O`: the pIC50 is 6.74.

For the molecule `O=C(O)c1ccc2c(c1)C(=O)C(=O)N2CCc1ccccc1`, the pIC50 was 5.01.

As for `C#CCOc1cc2ccccc2cc1C(=O)NC1=CC(=O)C2OC2C1O` (stereo not drawn), the pIC50 is 6.29.
